Experimental data reported in US9650395B2, “Antibacterial compounds and methods for use” (PTC Therapeutics, Inc., priority 2011, dated 2017).
Values after ≈ are worked out from the molar mass of the structure shown. Like-named read-outs stand apart in the source and are kept apart here.

Tests used:
[1] = tested on: quinolone resistant E. coli LZ3111; assay: Antibacterial activity, MIC, quinolone resistant E. coli LZ3111; assay type: cell-based, Escherichia coli; details: Escherichia coli, read-out: MIC, LZ3111
Description: The antibacterial activity from a microbroth dilution method may be presented as the minimum inhibitory concentration (MIC in […]). The MIC value is the lowest concentration of a drug which prevents macroscopically visible bacterial growth under test conditions.
Mutations in these regions are known to confer a high level resistance to the quinolone class of antibiotics.

[2] = tested on: control Gram-negative E. coli 25922 strain; assay: Antibacterial activity, microbroth dilution MIC, E. coli 25922; assay type: cell-based, Escherichia coli; details: Escherichia coli; E. coli 25922, microbroth dilution; read-out: MIC, 25922
[3] = tested on: Gram-positive Staphylococcus aureus (S. aureus) 29213; assay: Antibacterial activity, microbroth dilution MIC, S. aureus 29213; assay type: cell-based; details: Staphylococcus aureus; S. aureus 29213, microbroth dilution; read-out: MIC, 29213
[4] = tested on: super sensitive Gram-negative Escherichia coli (E. coli) BAS849; assay: Antibacterial activity, microbroth dilution MIC, E. coli BAS849; assay type: cell-based; details: Escherichia coli, read-out: MIC, BAS849
[5] = E. coli BAS849, microbroth dilution

SMILES | MIC [1] | MIC [2] | MIC [3] | MIC [4, 5] | MIC [4]
CCc1cc(C(=O)O)c(=O)[nH]c1-c1ccc(N2CCC(n3ccnn3)C2)cc1 (stereo not drawn) [Cpd 230, 5-ethyl-2-oxo-6-{4-[3-(1H-1,2,3-triazol-1-yl)pyrrolidin-1-yl]phenyl}-1,2-dihydropyridine-3-carboxylic acid] | 12.5 to 150 µg/mL (≈ 32.9 to 395 µM) | 1 to 3.5 µg/mL (≈ 2.64 to 9.22 µM) | 3.5 to 12.5 µg/mL (≈ 9.22 to 32.9 µM) | < 1 µg/mL | –
CCc1c(-c2ccc(N3C[C@H]4CNC[C@H]4C3)cc2)[nH]c(=O)c(C(=O)O)c1O.Cl [Cpd 274, 5-ethyl-6-{4-[(3aR,6aS)-hexahydropyrrolo[3,4-c]pyrrol-2(1H)-yl]phenyl}-4-hydroxy-2-oxo-1,2-dihydropyridine-3-carboxylic acid hydrochloride] | 12.5 to 150 µg/mL | 12.5 to 150 µg/mL | 12.5 to 150 µg/mL | 1 to 3.5 µg/mL | –
CCc1c(-c2ccc(N3CCNCC3)cn2)[nH]c(=O)c(C(=O)O)c1O [Cpd 113, 5-ethyl-4-hydroxy-2-oxo-6-[5-(piperazin-1-yl)pyridin-2-yl]-1,2-dihydropyridine-3-carboxylic acid] | 12.5 to 150 µg/mL (≈ 36.3 to 436 µM) | 3.5 to 12.5 µg/mL (≈ 10.2 to 36.3 µM) | 12.5 to 150 µg/mL (≈ 36.3 to 436 µM) | 3.5 to 12.5 µg/mL (≈ 10.2 to 36.3 µM) | –
CCc1c(-c2ccc(N3C[C@H]4C[C@@H](N)C[C@H]4C3)cc2)[nH]c(=O)c(C(=O)O)c1O [Cpd 248, 6-{4-[(3aR,5r,6aS)-5-aminohexahydrocyclopenta[c]pyrrol-2(1H)-yl]phenyl}-5-ethyl-4-hydroxy-2-oxo-1,2-dihydropyridine-3-carboxylic acid] | 12.5 to 150 µg/mL (≈ 32.6 to 391 µM) | 12.5 to 150 µg/mL (≈ 32.6 to 391 µM) | 12.5 to 150 µg/mL (≈ 32.6 to 391 µM) | 1 to 3.5 µg/mL (≈ 2.61 to 9.13 µM) | –
CCc1cc(C(=O)O)c(=O)[nH]c1-c1ccc(N2CC3CCCNC3C2)cc1.Cl (stereo not drawn) [Cpd 213, 5-ethyl-6-[4-(octahydro-6H-pyrrolo[3,4-b]pyridin-6-yl)phenyl]-2-oxo-1,2-dihydropyridine-3-carboxylic acid hydrochloride] | 12.5 to 150 µg/mL | 12.5 to 150 µg/mL | 12.5 to 150 µg/mL | 1 to 3.5 µg/mL | –
CCc1cc(C(=O)O)c(=O)[nH]c1-c1ccc(N2C[C@H]3CCC[C@@H](N)[C@H]3C2)cc1.O=C(O)C(F)(F)F [Cpd 197, 6-{4-[(3aR,4R,7aS)-4-aminooctahydro-2H-isoindol-2-yl]phenyl}-5-ethyl-2-oxo-1,2-dihydropyridine-3-carboxylic acid trifluoroacetate] | 12.5 to 150 µg/mL | 12.5 to 150 µg/mL | 12.5 to 150 µg/mL | – | 3.5 to 12.5 µg/mL
CCc1cc(C(=O)O)c(=O)[nH]c1-c1ccc(N2CCC(CN3CCCC3)C2)cc1 (stereo not drawn) [Cpd 191, 5-ethyl-2-oxo-6-{4-[3-(pyrrolidin-1-ylmethyl)pyrrolidin-1-yl]phenyl}-1,2-dihydropyridine-3-carboxylic acid] | 12.5 to 150 µg/mL (≈ 31.6 to 379 µM) | 1 to 3.5 µg/mL (≈ 2.53 to 8.85 µM) | 12.5 to 150 µg/mL (≈ 31.6 to 379 µM) | < 1 µg/mL | –
CCc1cc(C(=O)O)c(=O)[nH]c1-c1ccc(N2C[C@H]3CC[C@@H](N(C)Cc4ccccc4)[C@H]3C2)cc1.Cl [Cpd 199, 6-{4-[(3aR,4R,6aS)-4-[benzyl(methyl)amino]hexahydrocyclopenta[c]pyrrol-2(1H)-yl]phenyl}-5-ethyl-2-oxo-1,2-dihydropyridine-3-carboxylic acid hydrochloride] | 12.5 to 150 µg/mL | 3.5 to 12.5 µg/mL | 3.5 to 12.5 µg/mL | < 1 µg/mL | –
CCc1c(-c2ccc(N3CCOCC3)cn2)[nH]c(=O)c(C(=O)O)c1O [Cpd 112, 5-ethyl-4-hydroxy-6-(5-morpholinopyridin-2-yl)-2-oxo-1,2-dihydropyridine-3-carboxylic acid] | 12.5 to 150 µg/mL (≈ 36.2 to 434 µM) | 12.5 to 150 µg/mL (≈ 36.2 to 434 µM) | 12.5 to 150 µg/mL (≈ 36.2 to 434 µM) | < 1 µg/mL | –
CCc1cc(C(=O)O)c(=O)[nH]c1-c1ccc(N2CCC(O)CC2)cc1 [Cpd 222, 5-ethyl-6-[4-(4-hydroxypiperidin-1-yl)phenyl]-2-oxo-1,2-dihydropyridine-3-carboxylic acid] | 12.5 to 150 µg/mL (≈ 36.5 to 438 µM) | 12.5 to 150 µg/mL (≈ 36.5 to 438 µM) | 12.5 to 150 µg/mL (≈ 36.5 to 438 µM) | 1 to 3.5 µg/mL (≈ 2.92 to 10.2 µM) | –
CCc1cc(C(=O)O)c(=O)[nH]c1-c1ccc(N2CCC(C)(N)C2)cc1.O=C(O)C(F)(F)F (stereo not drawn) [Cpd 166, 6-[4-(3-amino-3-methylpyrrolidin-1-yl)phenyl]-5-ethyl-2-oxo-1,2-dihydropyridine-3-carboxylic acid trifluoroacetate] | 12.5 to 150 µg/mL | 3.5 to 12.5 µg/mL | 12.5 to 150 µg/mL | – | < 1 µg/mL
CCc1cc(C(=O)O)c(=O)[nH]c1-c1ccc(N2CCC(CNCc3cccc(Cl)c3)C2)cc1 (stereo not drawn) [Cpd 236, 6-[4-(3-{[(3-chlorobenzyl)amino]methyl}pyrrolidin-1-yl)phenyl]-5-ethyl-2-oxo-1,2-dihydropyridine-3-carboxylic acid] | 12.5 to 150 µg/mL (≈ 26.8 to 322 µM) | 1 to 3.5 µg/mL (≈ 2.15 to 7.51 µM) | 3.5 to 12.5 µg/mL (≈ 7.51 to 26.8 µM) | < 1 µg/mL | –
